The text below walks through data of ChEMBL document CHEMBL1145046, “Structure-activity relationships in carboxamide derivatives based on the targeted delivery of radionuclides and boron atoms by means of peripheral benzodiazepine receptor ligands” (J Med Chem, 2003).

Molecules are shown by their SMILES.

Sequence of Translocator protein (P16257 whole entry, looked up): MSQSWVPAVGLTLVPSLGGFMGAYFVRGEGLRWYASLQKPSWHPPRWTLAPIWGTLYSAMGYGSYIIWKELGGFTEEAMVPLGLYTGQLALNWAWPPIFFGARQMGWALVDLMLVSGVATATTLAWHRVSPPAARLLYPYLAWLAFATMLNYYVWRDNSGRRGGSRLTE

This assay concerns the target Translocator protein (Rattus norvegicus, UniProt P16257). Kind of assay: Inhibitory activity against specific binding of [3H]-CB 34 to peripheral benzodiazepine receptor in rat cortical membranes was evaluated. The assay is classed as cell membranes, Membrane.
The compound `CN(Cc1ccccc1)C(=O)c1nc2ccccc2c(-c2ccccc2)c1CO` returned a concentration for half-maximal inhibition (IC50) of 0.0087 µM. For `Cc1c(C(=O)N(C)Cc2ccccc2)nc2ccccc2c1-c1ccccc1F`, the concentration for half-maximal inhibition (IC50) came to 0.0022 µM. On to `Cc1c(C(=O)NCc2ccccc2)cc2ccccc2c1-c1ccccc1`, for which the half-inhibitory concentration (IC50) turned out to be 6.6 µM. Compound `Cc1c(C(=O)NCc2ccccc2)nc2ccccc2c1-c1ccccc1F` displayed an IC50 of 1.49 µM. The same measure for `CN(Cc1ccccc1)C(=O)c1cc(-c2ccccc2)c2ccccc2c1`: 0.064 µM; for `Cc1c(C(=O)N(C)Cc2ccccc2)nc2ccccc2c1-c1ccccc1`: 0.0046 µM; for `Cc1c(C(=O)NCc2ccccc2)nc2ccccc2c1-c1ccccc1`: 10.3 µM. The same measure for `Cc1c(C(=O)N(C)Cc2ccccc2)cc2ccccc2c1-c1ccccc1`: 0.0098 µM; for `O=C(NCc1ccccc1)c1cc(-c2ccccc2)c2ccccc2c1`: 2.7 µM; for `C#CCN(C)C(=O)c1nc2ccccc2c(-c2ccccc2)c1C`: 0.032 µM. The same measure for `Cc1c(C(=O)N(Cc2ccccc2)Cc2ccccc2)nc2ccccc2c1-c1ccccc1`: 0.011 µM; for `O=C(NCc1ccccc1)c1cc(-c2ccccc2)c2ccccc2n1`: 11.5 µM.

`CN(Cc1ccccc1)C(=O)c1cc(-c2ccccc2)c2ccccc2n1` returned an IC50 of 0.038 µM. `CN(Cc1ccccc1)C(=O)c1nc2ccccc2c(-c2ccccc2)c1CCl` came in with an IC50 of 0.00045 µM. The value for `CCN(Cc1ccccc1)Cc1c(C(=O)N(C)Cc2ccccc2)nc2ccccc2c1-c1ccccc1` was 0.013 µM; that for `CCN(CC)Cc1c(C(=O)N(C)Cc2ccccc2)nc2ccccc2c1-c1ccccc1` was 0.012 µM.
